Source: the NIST ThermoML archive (doi:10.1016/j.tca.2011.10.009)
Numbers after ± are expanded uncertainties.

Columns and labels:
[1] = mn = molality of the nth substance listed, in mol/kg; conditions: 101 kPa, Liquid; for viscosity: Capillary tube (Ostwald / Ubbelohde) method; for mass density: Vibrating tube method
[2] = Liquid; for mass density: Vibrating tube method
[3] = refractive index (Na D-line) (dimensionless); mn = molality of the nth substance listed, in mol/kg; conditions: 298.15 K, 101 kPa, Liquid, Standard Abbe refractometry

`C(=NCCN=Cc1ccccn1)c1ccccn1` [N,N'-bis(2-pyridinylmethylene)-1,2-ethanediamine] + CN(C)C=O gave a viscosity ([1]; 298.15 K, m1 = 0.0402) of 0.878 ± 0.015 mPa·s, a viscosity ([1]; 298.15 K, m1 = 0.0764) of 0.893 ± 0.015 mPa·s and a viscosity ([1]; 298.15 K, m1 = 0.1208) of 0.909 ± 0.015 mPa·s. It also gave a viscosity ([1]; 298.15 K, m1 = 0.1644) of 0.926 ± 0.015 mPa·s, a mass density ([1]; 298.15 K, m1 = 0.0402) of 945.46 ± 0.82 kg/m3 and a mass density ([1]; 298.15 K, m1 = 0.0764) of 946.76 ± 0.83 kg/m3. For the same compound, the mass density ([1]; 298.15 K, m1 = 0.1208) was 948.07 ± 0.83 kg/m3, the mass density ([1]; 298.15 K, m1 = 0.1644) was 949.29 ± 0.83 kg/m3 and the mass density ([1]; 303.15 K, m1 = 0.0402) was 941.5 ± 0.82 kg/m3. The mass density ([1]; 303.15 K, m1 = 0.0764) was 942.72 ± 0.82 kg/m3, the mass density ([1]; 303.15 K, m1 = 0.1208) was 943.95 ± 0.82 kg/m3 and the mass density ([1]; 303.15 K, m1 = 0.1644) was 944.72 ± 0.82 kg/m3. For the same compound, the mass density ([1]; 308.15 K, m1 = 0.0402) was 936.79 ± 0.81 kg/m3, the mass density ([1]; 308.15 K, m1 = 0.0764) was 937.92 ± 0.81 kg/m3 and the mass density ([1]; 308.15 K, m1 = 0.1208) was 939.19 ± 0.82 kg/m3. The mass density ([1]; 308.15 K, m1 = 0.1644) was 940.14 ± 0.82 kg/m3, the mass density ([1]; 313.15 K, m1 = 0.0402) was 931.89 ± 0.81 kg/m3 and the mass density ([1]; 313.15 K, m1 = 0.0764) was 933.39 ± 0.81 kg/m3. The mass density ([1]; 313.15 K, m1 = 0.1208) was 934.92 ± 0.81 kg/m3 and the mass density ([1]; 313.15 K, m1 = 0.1644) was 936.16 ± 0.81 kg/m3.

With `CN(C)C=O` [dimethylformamide] the viscosity ([2]; 298.15 K, 101 kPa, Capillary tube (Ostwald / Ubbelohde) method) was 0.861 ± 0.014 mPa·s, the mass density ([2]; 298.15 K, 101 kPa) was 944.09 ± 0.82 kg/m3 and the mass density ([2]; 303.15 K, 101 kPa) was 940.82 ± 0.82 kg/m3. For the same compound, the mass density ([2]; 308.15 K, 101 kPa) was 935.79 ± 0.81 kg/m3 and the mass density ([2]; 313.15 K, 101 kPa) was 930.63 ± 0.81 kg/m3.

For `CCCCCCn1cc[n+](C)c1.[Br-]` [3-hexyl-1-methyl-1H-imidazolium bromide], the mass density ([2]; 298.15 K, 101.33 kPa) was 1222.1 ± 0.5 kg/m3.

`CCCCCCn1cc[n+](C)c1.[Br-]` [3-hexyl-1-methyl-1H-imidazolium bromide] + CN(C)C=O showed a viscosity ([1]; 298.15 K, m1 = 2.17e-05) of 0.897 ± 0.015 mPa·s, a viscosity ([1]; 298.15 K, m1 = 4.17e-05) of 0.913 ± 0.015 mPa·s and a viscosity ([1]; 298.15 K, m1 = 6.26e-05) of 0.929 ± 0.015 mPa·s. The viscosity ([1]; 298.15 K, m1 = 7.78e-05) was 0.938 ± 0.015 mPa·s, the viscosity ([1]; 298.15 K, m1 = 9.98e-05) was 0.952 ± 0.015 mPa·s and the viscosity ([1]; 298.15 K, m1 = 0.0001171) was 0.969 ± 0.015 mPa·s. For the same compound, the viscosity ([1]; 298.15 K, m1 = 0.0001363) was 0.985 ± 0.016 mPa·s, the viscosity ([1]; 298.15 K, m1 = 0.0001507) was 0.997 ± 0.016 mPa·s and the viscosity ([1]; 298.15 K, m1 = 0.0001787) was 1.014 ± 0.016 mPa·s. It also gave a viscosity ([1]; 298.15 K, m1 = 0.0001961) of 1.022 ± 0.016 mPa·s, a mass density ([1]; 298.15 K, m1 = 0.0233) of 945.6 ± 0.82 kg/m3 and a mass density ([1]; 298.15 K, m1 = 0.0435) of 946.89 ± 0.83 kg/m3. It also gave a mass density ([1]; 298.15 K, m1 = 0.0658) of 948.29 ± 0.83 kg/m3, a mass density ([1]; 298.15 K, m1 = 0.0824) of 949.31 ± 0.83 kg/m3 and a mass density ([1]; 298.15 K, m1 = 0.1049) of 950.67 ± 0.83 kg/m3. The mass density ([1]; 298.15 K, m1 = 0.1228) was 951.73 ± 0.83 kg/m3, the mass density ([1]; 298.15 K, m1 = 0.1428) was 952.91 ± 0.83 kg/m3 and the mass density ([1]; 298.15 K, m1 = 0.1583) was 953.83 ± 0.83 kg/m3. The mass density ([1]; 298.15 K, m1 = 0.1869) was 955.45 ± 0.84 kg/m3, the mass density ([1]; 298.15 K, m1 = 0.2051) was 956.47 ± 0.84 kg/m3 and the mass density ([1]; 303.15 K, m1 = 0.0233) was 942.35 ± 0.82 kg/m3. The mass density ([1]; 303.15 K, m1 = 0.0435) was 943.65 ± 0.82 kg/m3, the mass density ([1]; 303.15 K, m1 = 0.0658) was 945.07 ± 0.82 kg/m3 and the mass density ([1]; 303.15 K, m1 = 0.0824) was 946.1 ± 0.82 kg/m3. It also gave a mass density ([1]; 303.15 K, m1 = 0.1049) of 947.48 ± 0.83 kg/m3, a mass density ([1]; 303.15 K, m1 = 0.1228) of 948.58 ± 0.83 kg/m3 and a mass density ([1]; 303.15 K, m1 = 0.1428) of 949.77 ± 0.83 kg/m3. For the same compound, the mass density ([1]; 303.15 K, m1 = 0.1583) was 950.67 ± 0.83 kg/m3, the mass density ([1]; 303.15 K, m1 = 0.1869) was 952.33 ± 0.83 kg/m3 and the mass density ([1]; 303.15 K, m1 = 0.2051) was 953.36 ± 0.83 kg/m3. The mass density ([1]; 308.15 K, m1 = 0.0233) was 937.3 ± 0.81 kg/m3, the mass density ([1]; 308.15 K, m1 = 0.0435) was 938.59 ± 0.82 kg/m3 and the mass density ([1]; 308.15 K, m1 = 0.0658) was 939.99 ± 0.82 kg/m3. It also gave a mass density ([1]; 308.15 K, m1 = 0.0824) of 941.01 ± 0.82 kg/m3, a mass density ([1]; 308.15 K, m1 = 0.1049) of 942.38 ± 0.82 kg/m3 and a mass density ([1]; 308.15 K, m1 = 0.1228) of 943.44 ± 0.82 kg/m3. The mass density ([1]; 308.15 K, m1 = 0.1428) was 944.62 ± 0.82 kg/m3, the mass density ([1]; 308.15 K, m1 = 0.1583) was 945.53 ± 0.82 kg/m3 and the mass density ([1]; 308.15 K, m1 = 0.1869) was 947.16 ± 0.83 kg/m3. The mass density ([1]; 308.15 K, m1 = 0.2051) was 948.17 ± 0.83 kg/m3, the mass density ([1]; 313.15 K, m1 = 0.0233) was 932.21 ± 0.81 kg/m3 and the mass density ([1]; 313.15 K, m1 = 0.0435) was 933.56 ± 0.81 kg/m3. For the same compound, the mass density ([1]; 313.15 K, m1 = 0.0658) was 935.02 ± 0.81 kg/m3, the mass density ([1]; 313.15 K, m1 = 0.0824) was 936.08 ± 0.81 kg/m3 and the mass density ([1]; 313.15 K, m1 = 0.1049) was 937.52 ± 0.81 kg/m3. The mass density ([1]; 313.15 K, m1 = 0.1228) was 938.65 ± 0.82 kg/m3, the mass density ([1]; 313.15 K, m1 = 0.1428) was 939.88 ± 0.82 kg/m3 and the mass density ([1]; 313.15 K, m1 = 0.1583) was 940.81 ± 0.82 kg/m3. The mass density ([1]; 313.15 K, m1 = 0.1869) was 942.51 ± 0.82 kg/m3, the mass density ([1]; 313.15 K, m1 = 0.2051) was 943.57 ± 0.82 kg/m3 and the refractive index ([3]; m1 = 0.0233) was 1.4303 ± 0.0005. For the same compound, the refractive index ([3]; m1 = 0.0435) was 1.4306 ± 0.0005, the refractive index ([3]; m1 = 0.0658) was 1.4311 ± 0.0005 and the refractive index ([3]; m1 = 0.0824) was 1.4316 ± 0.0005. For the same compound, the refractive index ([3]; m1 = 0.1049) was 1.432 ± 0.0005, the refractive index ([3]; m1 = 0.1228) was 1.4325 ± 0.0005 and the refractive index ([3]; m1 = 0.1428) was 1.433 ± 0.0005. For the same compound, the refractive index ([3]; m1 = 0.1583) was 1.4336 ± 0.0005, the refractive index ([3]; m1 = 0.1869) was 1.4344 ± 0.0005 and the refractive index ([3]; m1 = 0.2051) was 1.4347 ± 0.0005.
